The source of these data is patent US20120029027A1, “N-[(6-AZA-BICYCLO[3.2.1]OCT-5-YL)-ARYL-METHYL]-HETEROBENZAMIDE DERIVATIVES, PREPARATION THEREOF, AND THERAPEUTIC USE OF SAME” (SANOFI, priority 2009, published 2012).

Where a name gives a salt, the structure may show the parent alone.

Test system in the first series: not given
Experiment: not given
Details: not given
`O=C(NC(c1ccccc1)C12CCCC(CN1)C2)c1cc(Cl)sc1Cl` (racemic) [Compound 1, N-[(6-Azabicyclo[3.2.1]oct-5-yl)phenylmethyl](2,5-dichloro)thiophene-3-carboxamide] registered a melting point of 95 to 97 °C.

The compound `CSc1ncccc1C(=O)NC(c1cccc(C)c1)C12CCCC(CN1)C2` (racemic) (as salt: HCl) [Compound 10, N-[(-6-Azabicyclo[3.2.1]oct-5-yl)-m-tolylmethyl]-2-methylsulfanylnicotinamide] had a melting point of 205 to 207 °C.

On to `Cn1cnc(C(=O)NC(c2ccccc2)C23CCCC(CN2)C3)c1` (racemic) [Compound 7, N-[(6-Azabicyclo[3.2.1]oct-5-yl)phenylmethyl](1-methyl)-1H-imidazole-4-carboxamide], for which the melting point was in the range of 150 to 152 °C.

`O=C(NC(c1cccc(C(F)(F)F)c1)C12CCCC(CN1)C2)c1nccc(C(F)(F)F)c1Cl` (racemic) (as salt: HCl) [Compound 11, N-[(6-Azabicyclo[3.2.1]oct-5-yl)(3-trifluoromethylphenyl)methyl](3-chloro-4-trifluoromethyl)pyridine-2-carboxamide] returned a melting point of 250.4 to 251.4 °C.

`O=C(NC(c1ccccc1)C12CCCC(CN1)C2)c1nccc(C(F)(F)F)c1Cl` (racemic) (as salt: HCl) [Compound 3, N-[(6-Azabicyclo[3.2.1]oct-5-yl)phenylmethyl](3-chloro-4-trifluoromethyl)pyridine-2-carboxamide] displayed a melting point of 158 to 160 °C.

Compound `CSc1ncccc1C(=O)NC(c1ccc(F)cc1)C12CCCC(CN1)C2` (racemic) (as salt: HCl) [Compound 8, N-[(6-Azabicyclo[3.2.1]oct-5-yl)(4-fluorophenyl)methyl]-2-methylsulfanyl-nicotinamide] displayed a melting point of 234 to 236 °C.

The next series has as its target T1, native human transporter GlyT1 (Homo sapiens, UniProt P48067).
T1 construct: expressing the native human transporter GlyT1; endogenous in cells; host or cells: SK-N-MC (human neuroepithelial cells)
T1 sequence (P48067 1-706): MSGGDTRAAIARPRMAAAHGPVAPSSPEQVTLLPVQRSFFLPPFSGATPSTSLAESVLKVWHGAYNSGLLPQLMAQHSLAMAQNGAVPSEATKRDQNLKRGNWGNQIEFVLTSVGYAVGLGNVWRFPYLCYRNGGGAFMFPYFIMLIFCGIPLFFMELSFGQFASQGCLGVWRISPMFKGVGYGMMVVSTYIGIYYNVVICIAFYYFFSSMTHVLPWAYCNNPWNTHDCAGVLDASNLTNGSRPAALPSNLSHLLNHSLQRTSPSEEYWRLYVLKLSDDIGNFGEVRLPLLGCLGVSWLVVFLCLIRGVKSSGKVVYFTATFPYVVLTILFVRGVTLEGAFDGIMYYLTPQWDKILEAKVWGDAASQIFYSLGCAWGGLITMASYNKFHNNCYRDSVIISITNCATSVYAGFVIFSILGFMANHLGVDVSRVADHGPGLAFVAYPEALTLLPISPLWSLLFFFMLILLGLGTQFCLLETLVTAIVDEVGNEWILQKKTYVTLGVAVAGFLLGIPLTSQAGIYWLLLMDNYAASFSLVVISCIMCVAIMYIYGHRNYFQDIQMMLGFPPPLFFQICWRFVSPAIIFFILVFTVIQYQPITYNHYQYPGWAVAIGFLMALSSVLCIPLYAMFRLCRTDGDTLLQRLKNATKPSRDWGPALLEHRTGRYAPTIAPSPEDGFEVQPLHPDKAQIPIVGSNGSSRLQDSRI
In words: Study of glycine transportation ([14C]glycine uptake) in SK-N-MC cells expressing the native human transporter GlyT1. It counts as cell-based. The note with it: 10 μM [14C]glycine, 10 min at 37° C., concentration which reduces by 50% the specific uptake of glycine, read-out: CI50 (the source's name). As for the experimental part:
Study of Glycine Transportation in SK-N-MC Cells Expressing the Native Human Transporter GlyT1.
The uptake of [^14C]glycine is studied in SK-N-MC cells (human neuroepithelial cells) expressing the native human transporter GlyT1 by measuring the radioactivity incorporated in the presence or absence of the test compound. The cells are cultured as a monolayer for 48 hours in plates pretreated with 0.02% fibronectin. On the day of the experiment, the culture medium is removed and the cells are washed with Krebs-HEPES (4-(2-hydroxyethyl)piperazine-1-ethanesulphonic acid) buffer at pH 7.4. After preincubation for 10 minutes at 37° C. in the presence either of buffer (control batch) or of test compound at various concentrations or of 10 mM of glycine (determination of the non-specific uptake), 10 μM of [^14C]glycine (specific activity 112 mCi/mmol) are subsequently added. Incubation is continued for 10 min at 37° C. and the reaction is halted by washing twice with pH 7.4 Krebs-HEPES buffer. The radioactivity incorporated by the cells is then estimated after adding 100 μl of liquid scintillant and stirring for 1 h. Counting is carried out on a Microbeta Tri-Lux™ counter. The effectiveness of the compound is determined by the IC50, the concentration of the compound which reduces by 50% the specific uptake of glycine, defined by the difference in radioactivity incorporated by the control batch and the batch which received the 10 mM glycine.
On to `O=C(NC(c1cccc(C(F)(F)F)c1)C12CCCC(CN1)C2)c1nccc(C(F)(F)F)c1Cl` (racemic) [Compound 11, N-[(6-Azabicyclo[3.2.1]oct-5-yl)(3-trifluoromethylphenyl)methyl](3-chloro-4-trifluoromethyl)pyridine-2-carboxamide], for which the IC50 amounted to 0.17 µM.

As to `CSc1ncccc1C(=O)NC(c1ccc(F)cc1)C12CCCC(CN1)C2` (racemic) [Compound 8, N-[(6-Azabicyclo[3.2.1]oct-5-yl)(4-fluorophenyl)methyl]-2-methylsulfanyl-nicotinamide], the IC50 is 0.13 µM.

For the compound `O=C(NC(c1ccccc1)C12CCCC(CN1)C2)c1cccc2c1ccn2Cc1ccccc1` (centres unmarked) [Compound 6, [(6-Azabicyclo[3.2.1]oct-5-yl)phenylmethyl](1-benzyl)-1H-indole-4-carboxamide], the IC50 came to 0.61 µM.

With `O=C(NC(c1ccccc1)C12CCCC(CN1)C2)c1nccc(C(F)(F)F)c1Cl` (racemic) [Compound 3, N-[(6-Azabicyclo[3.2.1]oct-5-yl)phenylmethyl](3-chloro-4-trifluoromethyl)pyridine-2-carboxamide], the IC50 came out at 0.22 µM.

On to `CSc1ncccc1C(=O)NC(c1ccccc1)C12CCCC(CN1)C2` (racemic) [Compound 2, N-[(6-azabicyclo[3.2.1]oct-5-yl)phenylmethyl](2-methylsulphanyl)nicotinamide], for which the IC50 was determined as 0.14 µM.
